Target: Delta-type opioid receptor (Homo sapiens, UniProt P41143)
Assay: Displacement of [125I]deltorphin 2 from human recombinant delta opioid receptor expressed in HEK cell membranes
Parameters: species or system HEK293

Delta-type opioid receptor, sequence (P41143 whole entry): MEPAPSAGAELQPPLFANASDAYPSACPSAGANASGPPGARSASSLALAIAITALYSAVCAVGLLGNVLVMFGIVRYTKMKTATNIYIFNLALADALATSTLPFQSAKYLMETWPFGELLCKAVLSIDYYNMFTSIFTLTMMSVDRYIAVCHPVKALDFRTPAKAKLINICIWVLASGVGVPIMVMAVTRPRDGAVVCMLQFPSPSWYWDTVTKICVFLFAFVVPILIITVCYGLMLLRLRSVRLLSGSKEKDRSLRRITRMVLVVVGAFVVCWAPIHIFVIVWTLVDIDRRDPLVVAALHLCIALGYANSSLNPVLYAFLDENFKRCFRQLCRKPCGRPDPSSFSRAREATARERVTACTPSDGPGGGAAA

Row | IC50 | Structure (SMILES)
1 | 86.4 µM | Cc1cccc2c1C(=O)C1[C@H]3CCCN3CC[C@H]1O2 (some centres undefined) [ELAEOCARPINE]
2 | 35.1 µM | Cc1cccc(O)c1C(=O)[C@@H]1[C@H]2CCCN2CC[C@@H]1O [ISOELAEOCARPICINE]
3 | 13.6 µM | Cc1cccc2c1C(=O)[C@H]1[C@H](CCN3CCC[C@H]13)O2 [ISOELAEOCARPINE]

Row | Structure (SMILES) | IC50
4 | Cc1cccc(O)c1C(=O)C1=CCCN2CCC[C@H]12 [ELAEOCARPENINE] | 2.74 µM

Source: ChEMBL document CHEMBL1139879, “Indolizidine alkaloids with delta-opioid receptor binding affinity from the leaves of Elaeocarpus fuscoides” (J Nat Prod, 2007)
